In patent publication US9809574B2, “Isoindoline or isoquinoline compounds, a process for their preparation and pharmaceutical compositions containing them” (LES LABORATOIRES SERVIER, priority 2013, dated 2017):
Counter-ions that a name gives are not always drawn.

What was measured:
Bcl-2 protein = Bcl-2 protein (histag-Bcl-2, UniProtKB P10415) (Homo sapiens (Human), UniProt P10415); assay: Inhibition of Bcl-2 by the fluorescence polarisation technique; format: binding; conditions: fluorescence polarisation test; incubation for 2 hours; read-out: IC50 (nM) Bcl-2 FP
Chain of Bcl-2 protein (P10415 whole entry): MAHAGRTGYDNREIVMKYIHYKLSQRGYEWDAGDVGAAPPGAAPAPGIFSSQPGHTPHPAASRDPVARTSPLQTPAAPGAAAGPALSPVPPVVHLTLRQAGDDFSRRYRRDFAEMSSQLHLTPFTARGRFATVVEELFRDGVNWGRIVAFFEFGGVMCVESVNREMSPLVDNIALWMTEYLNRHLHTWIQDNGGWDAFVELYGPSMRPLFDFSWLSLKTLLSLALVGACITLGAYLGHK
Description: For partial inhibitors, the percentage fluorescence polarisation inhibition for a given concentration of the test compound is indicated.

[1] = test system: RS4; 11 leukaemia cell line; assay: In vitro cytotoxicity, Microculture Tetrazolium Assay (MTT); format: cell-based; conditions: 11 cells exposed for 48 hours
Method: The cytotoxicity studies were carried out on the RS4; 11 leukaemia cell line and on H146 small Cell Lung Carcinoma cell line. The cells are distributed onto microplates and exposed to the test compounds for 48 hours. The cell viability is then quantified by a colorimetric assay, the Microculture Tetrazolium Assay (Cancer Res., 1987, 47, 939-942).

Compound: CN(C(=O)c1cc(-c2cc3c(cc2C(=O)N2Cc4ccccc4C[C@H]2CN2CCOCC2)CN(C(=O)Cc2ccccc2)CC3)n2c1CCCC2)c1ccc(O)cc1 [Example 70, N-(4-Hydroxyphenyl)-N-methyl-3-{7-[(3S)-3-(morpholin-4-ylmethyl)-1,2,3,4-tetrahydroisoquinoline-2-carbonyl]-2-(2-phenylacetyl)-1,2,3,4-tetrahydroisoquinolin-6-yl}-5,6,7,8-tetrahydroindolizine-1-carboxamide]
- IC50 (Bcl-2 protein): 5.1 nM
- IC50 ([1]; Homo sapiens): 9.8 nM

Compound: Cc1c(C(=O)N(C)c2ccc(O)cc2)cc(-c2cc3c(cc2C(=O)N2Cc4ccccc4C[C@H]2C)CN(C(=O)OC2CCC(N(C)C)CC2)CC3)n1C (stereo partly drawn) [Example 802, (1r,4r)-4-(Dimethylamino)cyclohexyl 6-{4-[(4-hydroxyphenyl)(methyl)carbamoyl]-1,5-dimethyl-1H-pyrrol-2-yl}-7-[(3R)-3-methyl-1,2,3,4-tetrahydroisoquinoline-2-carbonyl]-1,2,3,4-tetrahydroisoquinoline-2-carboxylate]
- IC50 (Bcl-2 protein): 4 nM
- IC50 [1]: 99 nM

Compound: CNC(=O)N1CCc2cc(-c3cc(C(=O)N(C)c4ccc(O)cc4)c4n3CCCC4)c(C(=O)N3Cc4ccccc4C[C@H]3C)cc2C1 [Example 79, 6-{1-[(4-Hydroxyphenyl)(methyl)carbamoyl]-5,6,7,8-tetrahydroindolizin-3-yl}-N-methyl-7-[(3R)-3-methyl-1,2,3,4-tetrahydroisoquinoline-2-carbonyl]-1,2,3,4-tetrahydroisoquinoline-2-carboxamide]
- IC50 (Bcl-2 protein): 5.6 nM
- IC50 ([1]; Homo sapiens): > 150 nM

Compound: CN(C(=O)c1cc(-c2cc3c(cc2C(=O)N2Cc4ccccc4C[C@H]2CN2CCOCC2)CN(C(=O)Oc2ccccc2)CC3)n2c1CCCC2)c1ccc(O)cc1 [Example 69, Phenyl 6-{1-[(4-hydroxyphenyl)(methyl)carbamoyl]-5,6,7,8-tetrahydroindolizin-3-yl}-7-[(3S)-3-(morpholin-4-ylmethyl)-1,2,3,4-tetrahydroisoquinoline-2-carbonyl]-1,2,3,4-tetrahydroisoquinoline-2-carboxylate hydrochloride]
- IC50 (Bcl-2 protein): 3.1 nM
- IC50 ([1]; Homo sapiens): 3.46 nM

Compound: C[C@@H]1Cc2ccccc2CN1C(=O)c1cc2c(cc1-c1cc(C(=O)N(C)c3ccc(O)cc3)c3n1CCCC3)CCN(C(=O)Cc1cccc(NCCN(C)C)c1)C2 [Example 123, 3-{2-[2-(3-{[2-(Dimethylamino)ethyl]amino}phenyl)acetyl]-7-[(3R)-3-methyl-1,2,3,4-tetrahydroisoquinoline-2-carbonyl]-1,2,3,4-tetrahydroisoquinolin-6-yl}-N-(4-hydroxyphenyl)-N-methyl-5,6,7,8-tetrahydroindolizine-1-carboxamide]
- IC50 (Bcl-2 protein): 5.3 nM
- IC50 ([1]; Homo sapiens): 8.3 nM

Compound: CCCN(C(=O)c1cc(-c2cc3c(cc2C(=O)N2Cc4ccccc4C[C@H]2CN2CCOCC2)CN(C(=O)Oc2ccccc2)CC3)n(C)c1C)c1ccc(O)cc1 [Example 186, Phenyl 6-{4-[(4-hydroxyphenyl)(propyl)carbamoyl]-1,5-dimethyl-1H-pyrrol-2-yl}-7-[(3S)-3-(morpholin-4-ylmethyl)-1,2,3,4-tetrahydroisoquinoline-2-carbonyl]-1,2,3,4-tetrahydroisoquinoline-2-carboxylate]
- IC50 (Bcl-2 protein): 2.5 nM
- IC50 ([1]; Homo sapiens): 4.5 nM

Compound: CCCCN(CCCC)C(=O)c1cc(-c2cc3c(cc2C(=O)N2Cc4ccccc4C[C@H]2C)CN(C(=O)Cc2ccccc2)CC3)n(C)c1C [Example 164, N,N-Dibutyl-1,2-dimethyl-5-{7-[(3R)-3-methyl-1,2,3,4-tetrahydroisoquinoline-2-carbonyl]-2-(2-phenylacetyl)-1,2,3,4-tetrahydroisoquinolin-6-yl}-1H-pyrrole-3-carboxamide]
- IC50 (Bcl-2 protein): 14 nM
- IC50 ([1]; Homo sapiens): > 150 nM

Compound: Cc1c(C(=O)N(C)c2ccc(O)cc2)cc(-c2cc3c(cc2C(=O)N2Cc4ccccc4C[C@H]2CN(C)C)CN(C(=O)Oc2ccccc2)CC3)n1C [Example 211, Phenyl 7-[(3S)-3-[(dimethylamino)methyl]-1,2,3,4-tetrahydroisoquinoline-2-carbonyl]-6-{4-[(4-hydroxyphenyl)(methyl)carbamoyl]-1,5-dimethyl-1H-pyrrol-2-yl}-1,2,3,4-tetrahydroisoquinoline-2-carboxylate]
- IC50 (Bcl-2 protein): 3.4 nM
- IC50 ([1]; Homo sapiens): 6.9 nM

Compound: Cc1c(C(=O)N(C)c2ccc(O)cc2)cc(-c2cc3c(cc2C(=O)N2Cc4ccccc4C[C@H]2CN2CCOCC2)CN(C(=O)Oc2ccc4cc[nH]c4c2)CC3)n1C [Example 575, 1H-Indol-6-yl 6-{4-[(4-hydroxyphenyl)(methyl)carbamoyl]-1,5-dimethyl-1H-pyrrol-2-yl}-7-[(3S)-3-(morpholin-4-ylmethyl)-1,2,3,4-tetrahydroisoquinoline-2-carbonyl]-1,2,3,4-tetrahydroisoquinoline-2-carboxylate]
- IC50 (Bcl-2 protein): 6.3 nM
- IC50 ([1]; Homo sapiens): 12 nM

Compound: CN(C(=O)c1cc(-c2cc3c(cc2C(=O)N2Cc4ccccc4C[C@H]2CN2CCOCC2)CN(S(=O)(=O)c2cccnc2)C3)n2c1CCCC2)c1ccc(O)cc1 [Example 22, N-(4-Hydroxyphenyl)-N-methyl-3-{6-[(3S)-3-(morpholin-4-ylmethyl)-1,2,3,4-tetrahydroisoquinoline-2-carbonyl]-2-(pyridine-3-sulfonyl)-2,3-dihydro-1H-isoindol-5-yl}-5,6,7,8-tetrahydroindolizine-1-carboxamide hydrochloride]
- IC50 (Bcl-2 protein): 70 nM
- IC50 ([1]; Homo sapiens): > 150 nM

Compound: Cc1ccc(OC(=O)N2CCc3cc(-c4cc(C(=O)N(C)c5ccccc5)c(C)n4C)c(C(=O)N4Cc5ccccc5C[C@H]4CN4CCOCC4)cc3C2)cc1 [Example 591, 4-Methylphenyl 6-{1,5-dimethyl-4-[methyl(phenyl)carbamoyl]-1H-pyrrol-2-yl}-7-[(3S)-3-(morpholin-4-ylmethyl)-1,2,3,4-tetrahydroisoquinoline-2-carbonyl]-1,2,3,4-tetrahydroisoquinoline-2-carboxylate]
- IC50 (Bcl-2 protein): 2.5 nM
- IC50 ([1]; Homo sapiens): 7 nM

Compound: Cc1c(C(=O)N(C)c2ccc(O)cc2)cc(-c2cc3c(cc2C(=O)N2Cc4ccccc4C[C@H]2C)CN(C(=O)Oc2ccc(C#N)cc2)CC3)n1C [Example 147, 4-Cyanophenyl 6-{4-[(4-hydroxyphenyl)(methyl)carbamoyl]-1,5-dimethyl-1H-pyrrol-2-yl}-7-[(3R)-3-methyl-1,2,3,4-tetrahydroisoquinoline-2-carbonyl]-1,2,3,4-tetrahydroisoquinoline-2-carboxylate]
- IC50 (Bcl-2 protein): 3.2 nM
- IC50 ([1]; Homo sapiens): 2.3 nM

Compound: C[C@@H]1Cc2ccccc2CN1C(=O)c1cc2c(cc1-c1cc(C(=O)N(c3ccc(O)cc3)c3cnc4c(ccn4C)c3)c3n1CCCC3)CN(C(=O)COc1ccccc1)C2 [Example 158, N-(4-Hydroxyphenyl)-3-{6-[(3R)-3-methyl-1,2,3,4-tetrahydroisoquinoline-2-carbonyl]-2-(2-phenoxyacetyl)-2,3-dihydro-1H-isoindol-5-yl}-N-{1-methyl-1H-pyrrolo[2,3-b]pyridin-5-yl}-5,6,7,8-tetrahydroindolizine-1-carboxamide]
- IC50 (Bcl-2 protein): 4.6 nM
- IC50 ([1]; Homo sapiens): 3.5 nM

Compound: Cc1c(C(=O)N(C)c2ccc(O)cc2)cc(-c2cc3c(cc2C(=O)N2Cc4ccccc4C[C@H]2C)CN(C(=O)[C@@H](O)c2ccccc2)C3)n1C [Example 806, N-(4-Hydroxyphenyl)-5-(2-[(2S)-2-hydroxy-2-phenylacetyl]-6-{[(3R)-3-methyl-3,4-dihydroisoquinolin-2(1H)-yl]carbonyl}-2,3-dihydro-1H-isoindol-5-yl)-N,1,2-trimethyl-1H-pyrrole-3-carboxamide]
- IC50 (Bcl-2 protein): 33 nM
- IC50 ([1]; Homo sapiens): > 150 nM

Compound: Cc1c(C(=O)N(C)c2ccc(O)cc2)cc(-c2cc3c(cc2C(=O)N2Cc4ccccc4C[C@H]2C)CN(C(=O)Oc2ccccc2CCC(=O)N(C)C)CC3)n1C [Example 775, 2-[2-(Dimethylcarbamoyl)ethyl]phenyl 6-{4-[(4-hydroxyphenyl)(methyl)carbamoyl]-1,5-dimethyl-1H-pyrrol-2-yl}-7-[(3R)-3-methyl-1,2,3,4-tetrahydroisoquinoline-2-carbonyl]-1,2,3,4-tetrahydroisoquinoline-2-carboxylate]
- IC50 (Bcl-2 protein): 2.4 nM
- IC50 ([1]; Homo sapiens): 6.3 nM

Compound: Cc1c(C(=O)N(C)c2ccc(O)cc2)cc(-c2cc3c(cc2C(=O)N2Cc4ccccc4C[C@H]2C)CN(C(=O)OC2CCS(=O)(=O)C2)C3)n1C (stereo partly drawn) [Example 157, 1,1-Dioxo-1λ^6-thiolan-3-yl 5-{4-[(4-hydroxyphenyl)(methyl)carbamoyl]-1,5-dimethyl-1H-pyrrol-2-yl}-6-[(3R)-3-methyl-1,2,3,4-tetrahydroisoquinoline-2-carbonyl]-2,3-dihydro-1H-isoindole-2-carboxylate]
- IC50 (Bcl-2 protein): 21 nM
- IC50 ([1]; Homo sapiens): > 600 nM

Compound: Cc1c(C(=O)N(C)c2ccccc2)cc(-c2cc3c(cc2C(=O)N2Cc4ccccc4C[C@H]2C)CN(C(=O)Oc2ccc(N(C)CCN(C)C)cc2)CC3)n1C [Example 488, 4-{[2-(Dimethylamino)ethyl](methyl)amino}phenyl 6-{1,5-dimethyl-4-[methyl(phenyl)carbamoyl]-1H-pyrrol-2-yl}-7-[(3R)-3-methyl-1,2,3,4-tetrahydroisoquinoline-2-carbonyl]-1,2,3,4-tetrahydroisoquinoline-2-carboxylate]
- IC50 (Bcl-2 protein): 5.3 nM
- IC50 ([1]; Homo sapiens): 13 nM

Compound: C[C@@H]1Cc2ccccc2CN1C(=O)c1cc2c(cc1-c1cc(C(=O)N(C)c3ccc(O)cc3)c3n1CCCC3)CCN(S(=O)(=O)c1ccccc1)C2 [Example 39, 3-[2-(Benzenesulfonyl)-7-[(3R)-3-methyl-1,2,3,4-tetrahydroisoquinoline-2-carbonyl]-1,2,3,4-tetrahydroisoquinolin-6-yl]-N-(4-hydroxyphenyl)-N-methyl-5,6,7,8-tetrahydroindolizine-1-carboxamide]
- IC50 (Bcl-2 protein): 14 nM
- IC50 ([1]; Homo sapiens): 106 nM
